Consider seven molecules from patent US20170119727A1, “A THERAPEUTIC PROTOCOL FOR TREATING OVARIAN CANCER” (Bionomics Limited, priority 2014, published 2017).

SMILES strings stand for the structures.

In data set [1] the test system is Human umbilical vein endothelial cells (HUVECs), tumour type activated endothelial cells. As to the kind of experiment: Proliferation assay - activated endothelium (MTT). It counts as cell-based. Particulars: for potency against activated (tumor) versus quiescent (normal) endothelial cells: activated compared with quiescent endothelial cells; for IC50: Homo sapiens, HUVEC, tumour type activated endothelial cells (HUVECs), 48 hrs, read-out: HUBECs Tum: IC50. On the procedure: Proliferation Assay—Activated Endothelium:
(§1) Human umbilical vein endothelial cells (CC-2519, Clonetics) were plated at 2500 cells/well in EGM2 (CC-3162, Clonetics) in a 96 well plate in triplicate. Cells were cultured overnight at 37° C. 5% CO2. Medium was subsequently replaced with fresh medium including the compound or negative control. Cells were cultured for a period of 48 hrs. An MTT assay was performed to measure changes in cell numbers. Briefly, 20 μl of MTT reagent was added to cells containing 100 μl of EGM2 and incubated at 37° C. for 2 hours. Absorbance was measured at 492 nm.

Another data set deals with MCF-7. As to the kind of experiment: Growth inhibition of cancer cell line (Sulforhodamine B or Systmex cell counting assay). Particulars: Homo sapiens, MCF7, concentration required to inhibit net cell growth by 50%. The class given is cell-based.
The test system of data set [2] is Human umbilical vein endothelial cells (HUVECs), normal quiescent type endothelial cells. Kind of data set: Proliferation assay - quiescent endothelium (MTT). The class given is cell-based. Particulars: HUVEC, 48 hrs, read-out: HUBECs Norm: IC50. As to the method:
Proliferation Assay—Quiescent Endothelium:
as §1, with “15000” for “2500”, “EBM2 (CC-3156, Clonetics)+0.5% FBS (CC-4101A, Clonetics)+GA-1000 (CC-4381A,” for “EGM2 (CC-3162,”, “EBM2+0.5% FBS” for “EGM2”

Another data set relates to tubulin. As to the kind of experiment: Tubulin polymerization inhibition. The class given is biochemical.
Data set [3] concerns MDA-MB-231 solid orthotopic tumours. As to the kind of experiment: Tumour growth inhibition, single agent. The class given is in vivo, Balb/c nu/nu mice. As to conditions: Example 2 40 mg/kg i.v., two cycles; vs vehicle; significant from day 4 (p<0.001) through Day 70. On the procedure: Balb/c nu/nu mice bearing MDA-MB-231 solid orthotopic tumours were treated with compound Example 2 at 40 mg/kg. Animals were i.v. dosed with a total of two cycles of Example 2 treatment. Each cycle was dosing on […] followed by a three week no-dosing period. Tumour growth represented as a ratio to initial tumour volume is shown over a total of 72-days.
Tumour growth as well as animal health were monitored for up to 72 days post-day 1 of treatment. […] Significant differences in tumour growth between Example 2 treated (n=64) and vehicle treated (n=20) animals were observed as early as day 4 (p<0.001; unpaired t-test; Prism® analysis) through to Day 70.

Data set [4] concerns cisplatin resistant A2780Cis solid orthotopic tumours. As to the kind of experiment: Tumour growth inhibition, combination with carboplatin and gemcitabine. It counts as in vivo, Balb/c nu/nu mice. As to conditions: Example 2 24 mg/kg + carboplatin 50 mg/kg + gemcitabine 12.5 mg/kg i.v.; triplet compared to carboplatin/gemcitabine doublet; up to 21 days. On the procedure:
(a) Example 2 Treatment in Combination with Carboplatin (Combination Partner (b)) and Gemcitabine (Combination Partner (c)).
Balb/c nu/nu mice bearing cisplatin resistant A2780Cis solid orthotopic tumours were treated with compound Example 2 at 24 mg/kg, carboplatin at 50 mg/kg and gemcitabine at 12.5 mg/kg. Animals were i.v. dosed with a single dose of carboplatin, two weekly doses of Example 2 and two weekly doses of gemcitabine. Each cycle of Example 2 and gemcitabine was dosing on days 1 and 8; and each cycle of carboplatin was dosing on day 1.
Tumour growth as well as animal health were monitored for up to 21 days post-day 1 of treatment.

The nature of data set [5]: Phase I clinical trial: dose limiting toxicities, adverse events, recommended dose. It counts as in vivo, female ovarian cancer subjects (patients). The text has this:
(§2) A standard 3+3 Phase I design was used to determine the recommended dose of compound Example 2 with combination partners (b) and (c). In addition, this design also facilitated the determination of secondary endpoints including progression-free survival (PFS) and adverse event rates. Further correlative endpoints that measure the effect of the drug combination on compound Example 2 pharmacokinetics (PK) were also captured in this trial design.
(§3) The patient cohort selected for this Phase I clinical trial were female ovarian cancer subjects with a PFS interval of ≧4 months after first or second line platinum-based chemotherapy.
(§4) The dosing regime is outlined in FIG. 4. This protocol included compound Example 2 escalation at 12 or 16 mg/m^2 IV on days 2 and 9, carboplatin AUC4 on day 1, gemcitabine escalation 800 and 1000 mg/m^2 days 1 and 8. Treatment proceeded across a 21 day cycle for a maximum of 6 cycles. Treatment was followed by single agent maintenance with compound Example 2 at 16 mg/m^2 for a maximum of 6 additional cycles.
(§5) The key outcomes of this trial include the identification of the maximum tolerated dose (MTD) of compound Example 2 and combination partners (b) and (c), dose limiting toxicities and patient response measured according to CA125 levels or RECIST. Additional plasma biomarker studies that measure concentrations of ferritin, interleukin-8, interleukin-16 and macrophage inflammatory protein-1β provide correlative data relating to the PK of compound Example 2.

The test system of a further data set is recurrent ovarian cancer. As to the kind of experiment: Phase I clinical trial: objective response (CA125 or RECIST). The class given is in vivo, female ovarian cancer subjects (patients). Particulars: combination with carboplatin and gemcitabine.
Description: as §2, §3, §4, §5

Setting [6] is: Dose level 1 (n = 6), combination with carboplatin and gemcitabine, all cycles.
[7] abbreviates: Dose level 2a (n = 3), combination with carboplatin and gemcitabine, all cycles.
The mark [8] stands for this setting: Dose level 2b (n = 60 as printed), combination with carboplatin and gemcitabine, all cycles.

Take `COc1ccc(/C=C\c2cc(OC)c(OC)c(OC)c2)cc1O` [Combretastatin A4]: the “potency against activated (tumor) versus quiescent (normal) endothelial cells” value in data set [1] was “equally potent against quiescent and activated endothelial cells”.
In the case of `COc1ccc(/C=C\c2cc(OC)c(OC)c(OC)c2)cc1O` [Comparator A], the half-inhibitory concentration (IC50) was 5 nM in the data set on MCF-7, 1 to 10 nM in data set [1] and 1 to 10 nM in data set [2].
As to `COc1ccc(/C=C\c2cc(OC)c(OC)c(OC)c2)cc1OP(=O)(O)O` [Comparator B], the IC50 was 5 nM in the data set on MCF-7, 1 to 10 nM in data set [1] and 1 to 10 nM in data set [2].
With `COc1ccc2c(C(=O)c3cc(OC)c(OC)c(OC)c3)coc2c1` [Comparator C], the values for the IC50 (in the data set with MCF-7; in data set [1]; in data set [2]) were 55 nM, 10 to 100 nM and 10 to 100 nM, respectively.
`COc1ccc2c(C(=O)c3cc(OC)c(OC)c(OC)c3)c(Br)oc2c1` [Comparator D]: the IC50 is 500 nM in the data set with MCF-7, 100 to 1000 nM in data set [1] and 100 to 1000 nM in data set [2].
On to `COc1cc(C(=O)c2c(C)oc3c(O)c(OC)ccc23)cc(OC)c1OC` [Example 1, 2-Methyl-7-hydroxy-3-(3,4,5-trimethoxybenzoyl)-6-methoxybenzofuran], for which the IC50 in the data set on MCF-7 is 2 nM; in data set [1] it was 0.1 to 1 nM; in data set [2], 10 to 100 nM. Besides, the “potency against activated (tumor) versus quiescent (normal) endothelial cells” value in data set [1] was “high potency towards tumor endothelial cells (activated) over normal endothelial cells (quiescent)”. For the same molecule, in the data set on tubulin, the tubulin polymerization inhibition entry is given as “potent tubulin polymerization inhibitor”.
Take `COc1cc(C(=O)c2c(C)oc3c(OP(=O)([O-])[O-])c(OC)ccc23)cc(OC)c1OC.[Na+].[Na+]` [Example 2, Disodium 6-methoxy-2-methyl-3-(3,4,5-trimethoxybenzoyl)benzofuran-7-yl phosphate]: the “Tumour growth (ratio to initial tumour volume)” value in data set [3] is given as “tumour growth inhibition”. Moreover, the “Tumour growth (tumor volume)” value in data set [4] is “tumour growth inhibition”. In addition, in data set [5] (setting [6]), the “Hypertension Gr 3” value is 1, the “Neutropenia Gr 3” value worked out at 3 and the “Neutropenia Gr 4” value is on record as 2. Moreover, the “Number of DLTs” value in data set [5] (Dose level 1: Example 2 12 mg/m2 + carboplatin AUC4 + gemcitabine 800 mg/m2, 6 patients) was determined as 1. In addition, in data set [5] (setting [7]), the “Hypersensitivity Gr 3” value is given as 1, the “Neutropenia Gr 3” value is recorded as 1, the “Neutropenia Gr 4” value amounted to 2 and the “Thrombocytopenia Gr 4” value was 2. In addition, the “Number of DLTs” value in data set [5] (Dose level 2a: Example 2 16 mg/m2 + carboplatin AUC4 + gemcitabine 800 mg/m2, 3 patients) was 2. In data set [5] (setting [8]), the “Anaemia Gr 3” value was 1, the “Neutropenia Gr 3” value is given as 5 and the “Thrombocytopenia Gr 3” value worked out at 2. In addition, in data set [5] (Dose level 2b: Example 2 12 mg/m2 + carboplatin AUC4 + gemcitabine 1000 mg/m2), the “adverse events or dose limiting toxicities” value is “no adverse events or dose limiting toxicities were observed”. Further, the “Number of DLTs” value in data set [5] (Dose level 2b: Example 2 12 mg/m2 + carboplatin AUC4 + gemcitabine 1000 mg/m2, 6 patients) came to 0. Besides, in data set [5] (combination with combination partners (b) carboplatin and (c) gemcitabine, subjects with recurrent ovarian cancer), the safety and tolerability result was “safe and tolerable”. Further, the recommended dose in data set [5] (with carboplatin AUC4 and gemcitabine 1000 mg/m^2 (dose level 2b)) amounted to 12 mg/m^2. Besides, in the data set with recurrent ovarian cancer (Dose level 1, 6 accrued), the “Objective responses (CA125 or RECIST) %” value is listed as 68% and the “Objective responses (CA125 or RECIST) N” value turned out to be 4. In addition, in the data set on recurrent ovarian cancer (Dose level 2a, 3 accrued), the “Objective responses (CA125 or RECIST) %” value is given as 33% and the “Objective responses (CA125 or RECIST) N” value stood at 1. Further, in the data set on recurrent ovarian cancer (Dose level 2b, 6 accrued), the “Objective responses (CA125 or RECIST) %” value worked out at 83% and the “Objective responses (CA125 or RECIST) N” value was found to be 5. Also, in the data set on recurrent ovarian cancer (all dose levels, 15 accrued), the “Objective responses (CA125 or RECIST) %” value was determined as 68% and the “Objective responses (CA125 or RECIST) N” value was 10.
